The source of these data is patent US9464082B2, “Aryl and arylalkyl substituted pyrazolyl and pyrimidinyl tricyclic enones as antioxidant inflammation modulators” (AbbVie Inc., priority 2014, dated 2016).

pIC50: −log10 of the molar value. Some results are limits rather than exact numbers.

For this test, the system named is IFNγ-Induced NO Production. Kind of test: Nitric Oxide Suppression Assay (Suppression of IFNγ-Induced NO Production). It counts as cell-based. The following applies: RAW264.7; RAW 264.7 mouse macrophage cells; 2 hour pre-treatment with compound (3 μM to 0.3 nM, 10 point curve); 20 ng/mL interferon gamma, ~18 hour; Griess detection; n=2-3 in duplicates. Summed up: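 Mouse RAW 264.7 macrophages pre-treated 2 h at 37 °C with compound (3 μM to 0.3 nM, 10 points; DMSO ≤1%), then stimulated with 20 ng/mL interferon gamma for ~18 h. Supernatant nitrite measured by Griess reaction, absorbance 520–550 nm. IC50 from curve fit of signal normalised to IFNγ alone, mean n=2-3 in duplicate.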
For orientation: Nitrite, measured by Griess reagent, commonly stands in for NO production.
For the molecule `Cc1nc(-c2ccc3nccn3c2)c2c(n1)[C@@]1(c3ccccc3)C=C(C#N)C(=O)[C@@H](C)[C@@H]1CC2` [Example 107, (6aS,7S,10aR)-4-(imidazo[1,2-a]pyridin-6-yl)-2,7-dimethyl-8-oxo-10a-phenyl-5,6,6a,7,8,10a-hexahydrobenzo[h]quinazoline-9-carbonitrile], the pIC50 (in general, the negative decadic logarithm of the IC50, by convention in mol/L) was 7.97.
In the case of `Cc1nc(-c2ccc(O)cc2)c2c(n1)[C@@]1(c3ccccc3)C=C(C#N)C(=O)[C@@H](C)[C@@H]1CC2` [Example 108, (6aS,7S,10aR)-4-(4-hydroxyphenyl)-2,7-dimethyl-8-oxo-10a-phenyl-5,6,6a,7,8,10a-hexahydrobenzo[h]quinazoline-9-carbonitrile] it was 8.44; in that of `Cc1nc(-c2cccc(O)c2)c2c(n1)[C@@]1(c3ccccc3)C=C(C#N)C(=O)[C@@H](C)[C@@H]1CC2` [Example 109, (6aS,7S,10aR)-4-(3-hydroxyphenyl)-2,7-dimethyl-8-oxo-10a-phenyl-5,6,6a,7,8,10a-hexahydrobenzo[h]quinazoline-9-carbonitrile], 8.54; in that of `Cc1nc(-c2cccc(CCCO)c2)c2c(n1)[C@@]1(c3ccccc3)C=C(C#N)C(=O)[C@@H](C)[C@@H]1CC2` [Example 110, (6aS,7S,10aR)-4-[3-(3-hydroxypropyl)phenyl]-2,7-dimethyl-8-oxo-10a-phenyl-5,6,6a,7,8,10a-hexahydrobenzo[h]quinazoline-9-carbonitrile], 8.81.
The value for `C[C@@H]1C(=O)C(C#N)=C[C@]2(c3ccccc3)c3nc(-c4cc(Br)ccc4O)ncc3CC[C@@H]12` [Example 111, (6aS,7S,10aR)-2-(5-bromo-2-hydroxyphenyl)-7-methyl-8-oxo-10a-phenyl-5,6,6a,7,8,10a-hexahydrobenzo[h]quinazoline-9-carbonitrile] was 7.91.
The value for `C[C@@H]1C(=O)C(C#N)=C[C@]2(c3ccccc3)c3n[nH]c(-c4ccc(NS(C)(=O)=O)cc4)c3CC[C@@H]12` [Example 112, N-{4-[(5aS,6S,9aR)-8-cyano-6-methyl-7-oxo-9a-phenyl-4,5,5a,6,7,9a-hexahydro-2H-benzo[g]indazol-3-yl]phenyl}methanesulfonamide] was 7.18; that for `C[C@@H]1C(=O)C(C#N)=C[C@]2(c3ccccc3)c3n[nH]c(-c4cccc(NS(C)(=O)=O)c4)c3CCC12` (stereo partly drawn) [Example 113, N-{3-[(6S,9aR)-8-cyano-6-methyl-7-oxo-9a-phenyl-4,5,5a,6,7,9a-hexahydro-2H-benzo[g]indazol-3-yl]phenyl}methanesulfonamide] was 7.37; that for `C[C@@H]1C(=O)C(C#N)=C[C@]2(c3ccccc3)c3nc(-c4ccc(O)cc4)ncc3CC[C@@H]12` [Example 114, (6aS,7S,10aR)-2-(4-hydroxyphenyl)-7-methyl-8-oxo-10a-phenyl-5,6,6a,7,8,10a-hexahydrobenzo[h]quinazoline-9-carbonitrile] was 8.30.
For `C[C@@H]1C(=O)C(C#N)=C[C@]2(c3ccccc3)c3n[nH]c(-c4ccc(CCO)cc4)c3CC[C@@H]12` [Example 115, (5aS,6S,9aR)-3-[4-(2-hydroxyethyl)phenyl]-6-methyl-7-oxo-9a-phenyl-4,5,5a,6,7,9a-hexahydro-2H-benzo[g]indazole-8-carbonitrile], the pIC50 is 7.63.
In the case of `C[C@@H]1C(=O)C(C#N)=C[C@]2(c3ccccc3)c3n[nH]c(-c4cccc(CCO)c4)c3CC[C@@H]12` [Example 116, (5aS,6S,9aR)-3-[3-(2-hydroxyethyl)phenyl]-6-methyl-7-oxo-9a-phenyl-4,5,5a,6,7,9a-hexahydro-2H-benzo[g]indazole-8-carbonitrile] it was 8.03.
In the case of `C[C@@H]1C(=O)C(C#N)=C[C@]2(c3ccccc3)c3n[nH]c(-c4cnn(CCO)c4)c3CC[C@@H]12` [Example 117, (5aS,6S,9aR)-3-[1-(2-hydroxyethyl)-1H-pyrazol-4-yl]-6-methyl-7-oxo-9a-phenyl-4,5,5a,6,7,9a-hexahydro-2H-benzo[g]indazole-8-carbonitrile] it was 7.76; in that of `Cc1nc(-c2cccc(-c3ccc(N)cc3)c2)c2c(n1)[C@@]1(c3ccccc3)C=C(C#N)C(=O)[C@@H](C)[C@@H]1CC2` [Example 118, (6aS,7S,10aR)-4-(4′-aminobiphenyl-3-yl)-2,7-dimethyl-8-oxo-10a-phenyl-5,6,6a,7,8,10a-hexahydrobenzo[h]quinazoline-9-carbonitrile], 8.34.
Regarding `Cc1nc(-c2cccc(-c3ccc(O)cc3)c2)c2c(n1)[C@@]1(c3ccccc3)C=C(C#N)C(=O)[C@@H](C)[C@@H]1CC2` [Example 119, (6aS,7S,10aR)-4-(4′-hydroxybiphenyl-3-yl)-2,7-dimethyl-8-oxo-10a-phenyl-5,6,6a,7,8,10a-hexahydrobenzo[h]quinazoline-9-carbonitrile], the pIC50 was 8.19.
In the case of `C[C@@H]1C(=O)C(C#N)=C[C@]2(c3ccc(OCc4ccccc4)cc3)c3ncncc3CC[C@@H]12` [Example 120, (6aS,7S,10aR)-10a-[4-(benzyloxy)phenyl]-7-methyl-8-oxo-5,6,6a,7,8,10a-hexahydrobenzo[h]quinazoline-9-carbonitrile] it was 8.26; in that of `C[C@@H]1C(=O)C(C#N)=C[C@]2(c3ccc(O)cc3)c3ncncc3CC[C@@H]12` [Example 121, (6aS,7S,10aR)-10a-(4-hydroxyphenyl)-7-methyl-8-oxo-5,6,6a,7,8,10a-hexahydrobenzo[h]quinazoline-9-carbonitrile], 8.07.
With `Cc1nc(-c2ccc(-c3ccncc3)cc2)c2c(n1)[C@@]1(c3ccccc3)C=C(C#N)C(=O)[C@@H](C)[C@@H]1CC2` [Example 122, (6aS,7S,10aR)-2,7-dimethyl-8-oxo-10a-phenyl-4-[4-(pyridin-4-yl)phenyl]-5,6,6a,7,8,10a-hexahydrobenzo[h]quinazoline-9-carbonitrile], the pIC50 is 7.90.
In the case of `C[C@@H]1C(=O)C(C#N)=C[C@]2(c3ccccc3)c3n[nH]c(-c4cccc(CCCO)c4)c3CC[C@@H]12` [Example 123, (5aS,6S,9aR)-3-[3-(3-hydroxypropyl)phenyl]-6-methyl-7-oxo-9a-phenyl-4,5,5a,6,7,9a-hexahydro-2H-benzo[g]indazole-8-carbonitrile] it was 8.11; in that of `Cc1nc(-c2cccc(-c3cccc(NS(C)(=O)=O)c3)c2)c2c(n1)[C@@]1(c3ccccc3)C=C(C#N)C(=O)[C@@H](C)[C@@H]1CC2` [Example 124, N-{3′-[(6aS,7S,10aR)-9-cyano-2,7-dimethyl-8-oxo-10a-phenyl-5,6,6a,7,8,10a-hexahydrobenzo[h]quinazolin-4-yl]biphenyl-3-yl}methanesulfonamide], 8.87.
The value for `CC(=O)OCCCc1cccc(-c2nc(C)nc3c2CC[C@H]2[C@H](C)C(=O)C(C#N)=C[C@]32c2ccccc2)c1` [Example 125, 3-{3-[(6aS,7S,10aR)-9-cyano-2,7-dimethyl-8-oxo-10a-phenyl-5,6,6a,7,8,10a-hexahydrobenzo[h]quinazolin-4-yl]phenyl}propyl acetate] was 8.33; that for `C[C@@H]1C(=O)C(C#N)=C[C@]2(c3ccccc3)c3n[nH]c(-c4cncc(CO)c4)c3CC[C@@H]12` [Example 126, (5aS,6S,9aR)-3-[5-(hydroxymethyl)pyridin-3-yl]-6-methyl-7-oxo-9a-phenyl-4,5,5a,6,7,9a-hexahydro-2H-benzo[g]indazole-8-carbonitrile] was 8.01.
In the case of `Cc1nc(-c2cnn(CCO)c2)c2c(n1)[C@@]1(c3ccccc3)C=C(C#N)C(=O)[C@@H](C)[C@@H]1CC2` [Example 127, (6aS,7S,10aR)-4-[1-(2-hydroxyethyl)-1H-pyrazol-4-yl]-2,7-dimethyl-8-oxo-10a-phenyl-5,6,6a,7,8,10a-hexahydrobenzo[h]quinazoline-9-carbonitrile] it was 8.64.
Regarding `C[C@@H]1C(=O)C(C#N)=C[C@]2(c3cccc(OCc4ccccc4)c3)c3ncncc3CC[C@@H]12` [Example 128, (6aS,7S,10aR)-10a-[3-(benzyloxy)phenyl]-7-methyl-8-oxo-5,6,6a,7,8,10a-hexahydrobenzo[h]quinazoline-9-carbonitrile], the pIC50 is 8.11.
The value for `Cc1nc(-c2ccc(-c3cncnc3)cc2)c2c(n1)[C@@]1(c3ccccc3)C=C(C#N)C(=O)[C@@H](C)[C@@H]1CC2` [Example 129, (6aS,7S,10aR)-2,7-dimethyl-8-oxo-10a-phenyl-4-[4-(pyrimidin-5-yl)phenyl]-5,6,6a,7,8,10a-hexahydrobenzo[h]quinazoline-9-carbonitrile] was 7.89; that for `Cc1nc(-c2cncnc2)c2c(n1)[C@@]1(c3ccccc3)C=C(C(N)=O)C(=O)[C@@H](C)[C@@H]1CC2` [Example 130, (6aS,7S,10aR)-2,7-dimethyl-8-oxo-10a-phenyl-4-(pyrimidin-5-yl)-5,6,6a,7,8,10a-hexahydrobenzo[h]quinazoline-9-carboxamide] was under 5.52.
In the case of `C[C@@H]1C(=O)C(C(N)=O)=C[C@]2(c3ccccc3)c3ncncc3CC[C@@H]12` [Example 131, (6aS,7S,10aR)-7-methyl-8-oxo-10a-phenyl-5,6,6a,7,8,10a-hexahydrobenzo[h]quinazoline-9-carboxamide] it was 5.86; in that of `Cc1nc(-c2cnc(O)c(Br)c2)c2c(n1)[C@@]1(c3ccccc3)C=C(C#N)C(=O)[C@@H](C)[C@@H]1CC2` [Example 132, (6aS,7S,10aR)-4-(5-bromo-6-hydroxypyridin-3-yl)-2,7-dimethyl-8-oxo-10a-phenyl-5,6,6a,7,8,10a-hexahydrobenzo[h]quinazoline-9-carbonitrile], 6.41; in that of `Cc1nc(-c2ccc(O)nc2)c2c(n1)[C@@]1(c3ccccc3)C=C(C#N)C(=O)[C@@H](C)[C@@H]1CC2` [Example 133, (6aS,7S,10aR)-4-(6-hydroxypyridin-3-yl)-2,7-dimethyl-8-oxo-10a-phenyl-5,6,6a,7,8,10a-hexahydrobenzo[h]quinazoline-9-carbonitrile], 6.51.
